Data set [1] deals with dogs. Kind of data set: inhibitory action on ventricular extra systole on reperfusion of the occluded coronary artery in anesthetized open-chest dogs. It is filed as in vivo. The note with it: 60 min coronary occlusion then 20 min reperfusion, 300 mg/kg i.v. + 10 mg/kg/min i.v., mean ± standard deviation, P < 0.05 vs control group (35.9 ± 10.2). The procedure: The inhibitory action of glutathione monoisopropyl ester on ventricular extra systole occurred when the occluded coronary artery was reperfused in dogs was tested with the following method.
Measurement was carried out by partially modifying Gibsons' method (J. Cardiovasc. Pharmacol., 5, 517-524, 1983). Dogs (Mongrel, female and male, 9-18 kg) were anesthetized with pentobarbital, the chest was opened under artificial respiration. And then the left coronary artery anterior descending segmental branch was occluded for 60 minutes. Thereafter, a reperfusion was carried out for 20 minutes and then blood pressure and heart rate as well as the heart surface electrocardiogram were measured.
The glutathione monoisopropyl ester (GE) was intravenously administered in a single dose of 300 mg/kg 30 minutes after the coronary artery occlusion and continuous injection was carried out in the amount of 10 mg/kg/min, i.v., until the completion of this test from 40 minutes after the coronary artery occlusion. The effect of an agent was evaluated by the number of the ventricular extra systole for a minute, which had been occured during the time period of reperfusion.

Data set [2] has as its system mice. Kind of data set: acute toxicity (LD50), intraperitoneal injection to mice. It is filed as in vivo.

Consider `CC(C)OC(=O)CNC(=O)[C@H](CS)NC(=O)CC[C@H](N)C(=O)O` [GE, isopropyl r-L-glutamyl-L-cysteinyl glycinate], for which the “Number of ventricular extra systole” value in data set [1] is listed as 10.0 ± 5.6 counts/min. Besides, in data set [2], the “acute toxicity (LD50)” value was “approximately 5.3 g/kg”.

(Values after patent US4968671A, “Therapeutic agents for ischemic heart diseases” (Yamanouchi Pharmaceutical Co., Ltd., priority 1987, dated 1990).)
